{"source": "patent US20050187288A1", "about": "“Beta-lapachone and methods of treating cancer” (priority 2004, published 2005)", "key": {"G480 lung cancer cells": {"tested_on": "G480 lung cancer cells", "test": "Colony formation assay, single agents and combination", "format": "cell-based", "settings": "G480; β-lapachone 4 μM, 4 hours; average (SEM) of three experiments", "text": "Control plates received the same volume of DMSO alone. […] Treated wells were presented as percentage of control. Data were presented as an average (+SEM) from three independent experiments."}, "ASPC-1": {"tested_on": "ASPC-1", "test": "Colony formation assay, combination with Taxol", "format": "cell-based, human", "settings": "β-Lapachone 4 μM, Taxol 0.2 μM, 4 hours", "protocol": "Control wells were treated with equivalent volumes of DMSO. After 4 hours cells were rinsed and fresh medium is added. Cultures were observed daily for 10-20 days and then were fixed and stained. […] DNA laddering formation and annexin staining indicate that cell death is due to apoptosis."}, "60 cancer cell lines": {"tested_on": "60 cancer cell lines", "settings": "FDA approved agents, publicly available data; cited from earlier work"}}, "data": [{"smiles": "CC(=O)O[C@H]1C(=O)[C@@]2(C)[C@H]([C@H](OC(=O)c3ccccc3)[C@]3(O)C[C@H](OC(=O)[C@H](O)[C@@H](NC(=O)c4ccccc4)c4ccccc4)C(C)=C1C3(C)C)[C@]1(OC(C)=O)CO[C@@H]1C[C@@H]2O", "note": "[Taxol ®, paclitaxel, reference compound]", "values": [{"measurement": "Colonies (percent control)", "setting": "G480 lung cancer cells", "result": "39 (2.6) percent control"}, {"measurement": "Colonies, Percentage of control", "setting": "ASPC-1", "result": "71 (0.8) Percentage of control"}]}, {"smiles": "O=C1c2c(O)ccc(O)c2C(=O)c2c(NCCNCCO)ccc(NCCNCCO)c21", "note": "[mitoxantrone]", "values": [{"measurement": "mean LC50 across all cells compared with the mean of β-lapachone", "setting": "60 cancer cell lines", "result": "equals it"}]}]}
